Measurements from ChEMBL document CHEMBL1909046, “DrugMatrix in vitro pharmacology data”.

Key:
[1] = target: Sigma non-opioid intracellular receptor 1 (Homo sapiens, UniProt Q99720); assay: DRUGMATRIX: Sigma1 radioligand binding (ligand: [3H] Haloperidol); format: cell membranes, Jurkat, Membrane; settings: jurkat; Not Active = under 50% inhibition at 10 µM
Vasopressin V1a receptor = Vasopressin V1a receptor (Homo sapiens, UniProt P37288); format: cell membranes, Membrane; settings: hek293; also: in other assays of this panel Not Active means under 50% inhibition at 10 µM
Vasopressin V1a receptor, sequence (P37288 whole entry): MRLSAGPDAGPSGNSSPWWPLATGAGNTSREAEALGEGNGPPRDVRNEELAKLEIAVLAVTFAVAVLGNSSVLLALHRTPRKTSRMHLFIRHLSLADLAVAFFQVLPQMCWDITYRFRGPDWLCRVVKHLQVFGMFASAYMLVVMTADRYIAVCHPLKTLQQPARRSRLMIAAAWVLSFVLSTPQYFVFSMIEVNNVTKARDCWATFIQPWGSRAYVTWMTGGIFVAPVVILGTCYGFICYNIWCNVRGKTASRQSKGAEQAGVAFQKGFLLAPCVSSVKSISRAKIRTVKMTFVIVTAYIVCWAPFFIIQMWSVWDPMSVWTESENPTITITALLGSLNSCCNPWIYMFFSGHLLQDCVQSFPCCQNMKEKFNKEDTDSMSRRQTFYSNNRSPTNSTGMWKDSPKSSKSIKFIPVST

[2] = target: T1, C-X-C chemokine receptor type 1 (Homo sapiens, UniProt P25024); also: in other assays of this panel Not Active means under 50% inhibition at 10 µM
T1 sequence (P25024 whole entry): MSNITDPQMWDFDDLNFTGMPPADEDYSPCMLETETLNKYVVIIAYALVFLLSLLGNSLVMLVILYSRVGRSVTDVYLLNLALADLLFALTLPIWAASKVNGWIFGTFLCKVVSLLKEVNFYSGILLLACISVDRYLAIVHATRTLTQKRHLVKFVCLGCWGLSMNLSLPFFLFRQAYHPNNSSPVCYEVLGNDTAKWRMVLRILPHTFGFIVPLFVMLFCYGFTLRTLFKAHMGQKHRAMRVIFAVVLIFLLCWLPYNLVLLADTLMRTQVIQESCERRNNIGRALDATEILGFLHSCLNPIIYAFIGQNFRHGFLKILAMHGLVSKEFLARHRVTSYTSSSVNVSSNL

[3] = DRUGMATRIX: Glutamate, NMDA, Agonism radioligand binding (ligand: [3H] CGP-39653); format: cell membranes, Rattus norvegicus, Wistar, Cerebral cortex, Membrane; settings: Not Active = under 50% inhibition at 10 µM
[4] = target: T2, Neuropeptide Y receptor type 2 (Homo sapiens, UniProt P49146); format: cell membranes, Membrane; settings: kan-ts; also: in other assays of this panel Not Active means under 50% inhibition at 10 µM
T2 sequence (P49146 whole entry): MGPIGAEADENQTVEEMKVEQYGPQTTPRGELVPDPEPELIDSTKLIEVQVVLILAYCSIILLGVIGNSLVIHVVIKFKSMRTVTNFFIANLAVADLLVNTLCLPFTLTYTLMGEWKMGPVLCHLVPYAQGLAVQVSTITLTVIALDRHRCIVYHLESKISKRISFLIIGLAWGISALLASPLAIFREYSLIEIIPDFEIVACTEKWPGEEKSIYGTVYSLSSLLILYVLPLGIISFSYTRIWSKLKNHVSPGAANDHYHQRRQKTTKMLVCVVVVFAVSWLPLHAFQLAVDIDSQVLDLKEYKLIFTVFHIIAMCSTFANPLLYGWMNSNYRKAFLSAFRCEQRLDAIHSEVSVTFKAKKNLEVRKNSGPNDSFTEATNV

Progesterone receptor = target: T3, Progesterone receptor (Bos taurus, UniProt Q690N0); assay: DRUGMATRIX: Progesterone radioligand binding (ligand: [3H] R-5020); format: tissue-based, Uterus; settings: Not Active = under 50% inhibition at 10 µM; for Ki: read-out: Ki
T3 sequence (Q690N0 whole entry): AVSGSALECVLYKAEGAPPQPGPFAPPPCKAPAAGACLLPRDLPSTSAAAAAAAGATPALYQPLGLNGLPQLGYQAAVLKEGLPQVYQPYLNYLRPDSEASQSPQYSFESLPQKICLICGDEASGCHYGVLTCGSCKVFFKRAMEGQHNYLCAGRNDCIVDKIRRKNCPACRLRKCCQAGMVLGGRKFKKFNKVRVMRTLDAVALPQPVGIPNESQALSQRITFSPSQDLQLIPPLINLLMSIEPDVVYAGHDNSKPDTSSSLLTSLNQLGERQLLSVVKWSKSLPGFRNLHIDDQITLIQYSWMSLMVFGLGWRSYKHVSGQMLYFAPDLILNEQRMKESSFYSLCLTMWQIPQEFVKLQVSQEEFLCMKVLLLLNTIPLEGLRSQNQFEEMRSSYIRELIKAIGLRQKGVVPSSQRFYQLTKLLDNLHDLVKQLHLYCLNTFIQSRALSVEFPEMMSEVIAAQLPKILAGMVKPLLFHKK

Cytochrome P450 2C9 = Cytochrome P450 2C9 (Homo sapiens, UniProt P11712); settings: bti-tn-5b1-4; also: in other assays of this panel Not Active means under 50% inhibition at 10 µM
Cytochrome P450 2C9, sequence (P11712 whole entry): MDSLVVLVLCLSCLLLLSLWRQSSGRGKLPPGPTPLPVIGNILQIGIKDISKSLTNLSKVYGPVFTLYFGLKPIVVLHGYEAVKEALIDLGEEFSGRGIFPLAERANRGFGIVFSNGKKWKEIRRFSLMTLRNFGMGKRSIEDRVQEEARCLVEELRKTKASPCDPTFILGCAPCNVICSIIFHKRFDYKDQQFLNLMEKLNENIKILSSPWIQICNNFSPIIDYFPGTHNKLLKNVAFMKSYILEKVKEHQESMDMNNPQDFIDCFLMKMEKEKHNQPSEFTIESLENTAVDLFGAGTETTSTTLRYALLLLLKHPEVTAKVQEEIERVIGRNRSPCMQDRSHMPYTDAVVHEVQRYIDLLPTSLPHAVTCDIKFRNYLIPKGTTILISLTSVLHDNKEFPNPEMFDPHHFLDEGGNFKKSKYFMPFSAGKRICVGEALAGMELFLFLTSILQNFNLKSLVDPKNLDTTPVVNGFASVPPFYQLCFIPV

[5] = target: Voltage-gated inwardly rectifying potassium channel KCNH2 (Homo sapiens, UniProt Q12809); settings: hek293; also: in other assays of this panel Not Active means under 50% inhibition at 10 µM
Voltage-gated inwardly rectifying potassium channel KCNH2, sequence (Q12809 whole entry): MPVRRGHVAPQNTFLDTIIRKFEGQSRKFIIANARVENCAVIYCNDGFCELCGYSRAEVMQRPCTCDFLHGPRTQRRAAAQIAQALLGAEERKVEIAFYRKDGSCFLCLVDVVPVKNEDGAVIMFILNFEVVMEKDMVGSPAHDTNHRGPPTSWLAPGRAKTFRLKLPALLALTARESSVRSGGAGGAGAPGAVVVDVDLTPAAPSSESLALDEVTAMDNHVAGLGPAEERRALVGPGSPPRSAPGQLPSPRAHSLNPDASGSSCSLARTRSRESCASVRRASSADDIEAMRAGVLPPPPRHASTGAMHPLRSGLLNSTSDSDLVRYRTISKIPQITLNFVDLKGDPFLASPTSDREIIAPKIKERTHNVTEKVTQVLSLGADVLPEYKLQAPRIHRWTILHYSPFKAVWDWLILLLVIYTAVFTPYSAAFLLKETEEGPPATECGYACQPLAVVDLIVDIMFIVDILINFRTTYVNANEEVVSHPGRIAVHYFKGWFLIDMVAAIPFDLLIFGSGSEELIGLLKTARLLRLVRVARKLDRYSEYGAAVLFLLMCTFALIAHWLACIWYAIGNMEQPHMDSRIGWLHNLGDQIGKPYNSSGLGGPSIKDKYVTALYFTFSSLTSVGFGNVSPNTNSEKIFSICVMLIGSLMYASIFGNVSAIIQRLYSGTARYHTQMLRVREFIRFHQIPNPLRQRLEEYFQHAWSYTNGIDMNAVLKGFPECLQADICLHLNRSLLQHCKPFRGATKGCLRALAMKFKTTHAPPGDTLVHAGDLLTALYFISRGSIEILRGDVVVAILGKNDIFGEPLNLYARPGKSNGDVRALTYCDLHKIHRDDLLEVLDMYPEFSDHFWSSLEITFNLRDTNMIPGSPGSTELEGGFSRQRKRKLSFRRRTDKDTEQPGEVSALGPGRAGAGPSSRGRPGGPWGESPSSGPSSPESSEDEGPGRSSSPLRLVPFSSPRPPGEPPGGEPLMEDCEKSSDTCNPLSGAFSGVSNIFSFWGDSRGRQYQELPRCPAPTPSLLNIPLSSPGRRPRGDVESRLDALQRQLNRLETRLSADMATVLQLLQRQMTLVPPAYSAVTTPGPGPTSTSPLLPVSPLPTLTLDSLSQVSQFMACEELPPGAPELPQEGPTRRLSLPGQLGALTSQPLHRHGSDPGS

Sigma non-opioid intracellular receptor 1, sequence (Q99720 whole entry): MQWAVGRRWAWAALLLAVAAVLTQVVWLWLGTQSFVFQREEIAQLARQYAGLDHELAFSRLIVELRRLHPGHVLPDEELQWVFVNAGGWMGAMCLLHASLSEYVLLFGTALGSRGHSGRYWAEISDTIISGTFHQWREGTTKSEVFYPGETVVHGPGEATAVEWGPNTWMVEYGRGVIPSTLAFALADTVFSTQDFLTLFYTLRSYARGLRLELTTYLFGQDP

SMILES | IC50 [1] | IC50 (Vasopressin V1a receptor) | IC50 [2] | IC50 [3] | Ki [3] | IC50 [4] | IC50 (Progesterone receptor) | IC50 (Cytochrome P450 2C9) | Ki (Cytochrome P450 2C9) | IC50 [5] | Ki [5] | IC50 (Progesterone receptor; read-out: IC50) [nM] | Ki (Progesterone receptor) [nM]
O=C(O)Cc1ccccc1Nc1c(Cl)cccc1Cl [DICLOFENAC] | Not Active | Not Active | Not Active | Not Active | Not Active | Not Active | Not Active | Not Active | Not Active | Not Active | Not Active |  | 
C[C@H]1O[C@@H](O[C@H]2[C@@H](O)C[C@H](O[C@H]3[C@@H](O)C[C@H](O[C@H]4CC[C@@]5(C)[C@H](CC[C@@H]6[C@@H]5CC[C@]5(C)[C@@H](C7=CC(=O)OC7)CC[C@]65O)C4)O[C@@H]3C)O[C@@H]2C)C[C@H](O)[C@@H]1O [DIGITOXIN] | Not Active | Not Active | Not Active | Not Active | Not Active | Not Active | Not Active | Not Active | Not Active | Not Active | Not Active |  | 
CCN1CC(CCN2CCOCC2)C(c2ccccc2)(c2ccccc2)C1=O (centres undefined) [DOXAPRAM] | Not Active | Not Active | Not Active | Not Active | Not Active | Not Active | Not Active | Not Active | Not Active | Not Active | Not Active |  | 
Cn1c(=O)c2c(ncn2CC2OCCO2)n(C)c1=O [DOXOFYLLINE] | Not Active | Not Active | Not Active | Not Active | Not Active | Not Active | Not Active | Not Active | Not Active | Not Active | Not Active |  | 
COc1cccc2c1C(=O)c1c(O)c3c(c(O)c1C2=O)C[C@@](O)(C(=O)CO)C[C@@H]3O[C@H]1C[C@H](N)[C@H](O)[C@H](C)O1 [DOXORUBICIN] | Not Active | Not Active | Not Active | Not Active | Not Active | Not Active | Not Active | Not Active | Not Active | Not Active | Not Active |  | 
COc1cccc2c1C(=O)c1c(O)c3c(c(O)c1C2=O)C[C@@](O)(C(=O)CO)C[C@@H]3O[C@H]1C[C@H](N)[C@@H](O)[C@H](C)O1 [EPIRUBICIN] | Not Active | Not Active | Not Active | Not Active | Not Active | Not Active | Not Active | Not Active | Not Active | Not Active | Not Active |  | 
C[C@]12CC[C@@H]3c4ccc(OC(=O)c5ccccc5)cc4CC[C@H]3[C@@H]1CC[C@@H]2O [ESTRADIOL BENZOATE] | Not Active | Not Active | Not Active | Not Active | Not Active | Not Active |  | Not Active | Not Active | Not Active | Not Active | 9610 | 1250
CC[C@@H](CO)NCCN[C@@H](CC)CO [ETHAMBUTOL] | Not Active | Not Active | Not Active | Not Active | Not Active | Not Active | Not Active | Not Active | Not Active | Not Active | Not Active |  | 
CC1(C)O[C@@H]2C[C@H]3[C@@H]4C[C@H](F)C5=CC(=O)C=C[C@]5(C)[C@H]4[C@@H](O)C[C@]3(C)[C@]2(C(=O)CO)O1 [FLUNISOLIDE] | Not Active | Not Active | Not Active | Not Active | Not Active | Not Active |  | Not Active | Not Active | Not Active | Not Active | 359 | 47
CC1(C)O[C@@H]2C[C@H]3[C@@H]4C[C@H](F)C5=CC(=O)C=C[C@]5(C)[C@@]4(F)[C@@H](O)C[C@]3(C)[C@]2(C(=O)CO)O1 [FLUOCINOLONE ACETONIDE] | Not Active | Not Active | Not Active | Not Active | Not Active | Not Active |  | Not Active | Not Active | Not Active | Not Active | 26 | 3.35
CC1(C)O[C@@H]2C[C@H]3[C@@H]4C[C@H](F)C5=CC(=O)CC[C@]5(C)[C@H]4[C@@H](O)C[C@]3(C)[C@]2(C(=O)CO)O1 [FLURANDRENOLIDE] | Not Active | Not Active | Not Active | Not Active | Not Active | Not Active |  | Not Active | Not Active | Not Active | Not Active | 172 | 22
Cc1ccc(S(=O)(=O)NC(=O)NN2CC3CCCC3C2)cc1 (centres undefined) [GLICLAZIDE] | Not Active | Not Active | Not Active | Not Active | Not Active | Not Active | Not Active | Not Active | Not Active | Not Active | Not Active |  | 
CC(C)Cc1ccc(C(C)C(=O)O)cc1 (centres undefined) [IBUPROFEN] | Not Active | Not Active | Not Active | Not Active | Not Active | Not Active | Not Active | Not Active | Not Active | Not Active | Not Active |  | 
COc1ccc2c(c1)c(CC(=O)O)c(C)n2C(=O)c1ccc(Cl)cc1 [INDOMETHACIN] | Not Active | Not Active | Not Active | Not Active | Not Active | Not Active | Not Active | Not Active | Not Active | Not Active | Not Active |  | 
CCc1c2c(nc3ccc(OC(=O)N4CCC(N5CCCCC5)CC4)cc13)-c1cc3c(c(=O)n1C2)COC(=O)[C@]3(O)CC [IRINOTECAN] | Not Active | Not Active | Not Active | Not Active | Not Active | Not Active | Not Active | Not Active | Not Active | Not Active | Not Active |  | 
CC(C(=O)O)c1cccc(C(=O)c2ccccc2)c1 (centres undefined) [KETOPROFEN] | Not Active | Not Active | Not Active | Not Active | Not Active | Not Active | Not Active | Not Active | Not Active | Not Active | Not Active |  | 
Nc1ccn([C@@H]2CS[C@H](CO)O2)c(=O)n1 [LAMIVUDINE] | Not Active | Not Active | Not Active | Not Active | Not Active | Not Active | Not Active | Not Active | Not Active | Not Active | Not Active |  | 
O=S(=O)([O-])CCS.[Na+] [MESNA] | Not Active | Not Active | Not Active | Not Active | Not Active | Not Active | Not Active | Not Active | Not Active | Not Active | Not Active |  | 
C#C[C@]1(O)CC[C@H]2[C@@H]3CCc4cc(OC)ccc4[C@H]3CC[C@@]21C [MESTRANOL] | Not Active | Not Active | Not Active | Not Active | Not Active | Not Active |  | Not Active | Not Active | Not Active | Not Active | 84400 | 11000
